Several values for one entry are separate records, joined by “and”; a condition that tells them apart may be missing. Identical values can stand only once. Like-named read-outs stand apart in the source and are kept apart here.
Key:
STAT3 = test: HCS STAT3 assay; format: cell-based
Cal33 cells = test: Cal33 growth inhibition; format: cell-based; settings: for GI50: Table 5, * average of 2 experiments
[1] = Table 2, read-out: STAT3 (IC50)
[2] = Table 2, read-out: Cal33 (IC50)
[3] = FIG. 3, read-out: STAT3 potency (IC50)
[4] = Table 1, read-out: STAT3 (mean IC50)
[5] = Homo sapiens, CAL-33, Table 1, read-out: Growth Inhibition Cal33 (mean IC50)
[6] = Homo sapiens, CAL-33, Table 2, read-out: Cal33 (IC50)

Row | Structure (SMILES) | IC50 (STAT3; [1]) | IC50 (Cal33 cells; [2]) | further results
1 | CC1Sc2nnc(-c3[nH]nc4c3CCCC4)n2N=C1c1ccccc1 (racemic) [compound 10175] | 22.4 µM | 40.2 µM | –
2 | CC1Sc2nnc(-c3cc(-c4ccccc4)n(C)n3)n2N=C1c1ccc(Cl)c(Cl)c1 (stereo not shown) [compound 10543] | 4.8 µM | 35 µM | –
3 | COC(=O)Cn1nc(-c2nnc3n2N=C(c2ccc(OC)cc2)C(C)S3)c2c1CCC2 (stereo not shown) [compound 10437] | 25.3 µM | 2.8 µM | –
4 | CC(C)C1Sc2nnc(-c3cc(-c4ccccc4)n(C)n3)n2N=C1c1ccc(Cl)c(Cl)c1 (stereo not shown) [compound 10556] | 27.3 µM | 48.6 µM | –
5 | CC1Sc2nnc(-c3[nH]nc4c3CCC4)n2N=C1c1ccc(Cl)c(Cl)c1 (stereo not shown) [compound 10263, 6-(3,4-Dichlorophenyl)-7-methyl-3-(2,4,5,6-tetrahydrocyclopenta[c]pyrazol-3-yl)-7H-[1,2,4]triazolo[3,4-b][1,3,4]thiadiazine] | 8.5 µM and 11 µM | – | –
6 | CC1Sc2nnc(-c3cc(-c4ccccc4)n[nH]3)n2N=C1c1ccccc1 (stereo not shown) [compound 10131] | 3 µM | 26.3 µM | –
7 | COc1ccc(C2=Nn3c(nnc3-c3cc(-c4ccccc4)n[nH]3)SC2CC(=O)N(C)C)cc1 (stereo not shown) [compound 10425] | 9.9 µM | 29.3 µM | IC50 (STAT3; [3]): < 10 µM
8 | COc1ccc(C2=Nn3c(nnc3-c3cc(-c4ccc(Cl)cc4)n[nH]3)SC2C)cc1 (racemic) [compound 10205] | – | 2.1 µM and 2 µM | –
9 | COc1ccc(C2=Nn3c(nnc3-c3ccccc3)SC2C)cc1 (stereo not shown) [UPCDC10352] | 27.6 µM | – | IC50 (STAT3; [4]): 27.6 µM; IC50 (Cal33 cells; [5]): 0.21 µM; IC50 (Cal33 cells; [6]): 0.21 µM
10 | COC(=O)CC1Sc2nnc(-c3cc(-c4ccccc4)n[nH]3)n2N=C1c1ccc(OC)cc1 (stereo not shown) [compound 10427] | 11.6 µM | 34.5 µM | –
11 | CC1Sc2nnc(-c3[nH]nc4c3CCC4)n2N=C1c1ccc(F)c(F)c1 (stereo not shown) [compound 10510] | 47.1 µM | 50 µM | –
12 | COc1ccc(C2=Nn3c(nnc3-c3n[nH]c(-c4ccc(Cl)cc4)c3C)SC2C)cc1 (stereo not shown) [compound 10547] | 7.3 µM | 1.3 µM | –
13 | CC(=O)n1nc(-c2nnc3n2N=C(c2ccc(Cl)c(Cl)c2)C(C)S3)c2c1CCC2 (stereo not shown) [compound 10458] | 22.7 µM | 4.5 µM | –
14 | COc1cccc(C2=Nn3c(nnc3-c3cc(-c4ccc(Cl)cc4)n[nH]3)SC2C)c1 (stereo not shown) [compound 10535] | 7 µM | 6.3 µM | –
15 | CC(C)C1Sc2nnc(-c3[nH]nc4c3CCC4)n2N=C1c1ccc(Cl)c(Cl)c1 (racemic) [compound 10299] | 4.4 µM | 8.2 µM | IC50 (STAT3; [3]): < 10 µM
16 | CC1Sc2nnc(-c3[nH]nc4c3CCC4)n2N=C1c1ccc(C(F)(F)F)cc1 (stereo not shown) [compound 10470] | 24.4 µM | 1.4 µM | –
17 | CCN(CC)c1ccc(C2=Nn3c(nnc3-c3cc(-c4ccccc4)n(C)n3)SC2C)cc1 (stereo not shown) [compound 10555] | 3.7 µM | 10.5 µM | –
18 | COc1ccc(C2=Nn3c(nnc3-c3cc(-c4ccccc4)n(C(C)=O)n3)SC2C)cc1 (stereo not shown) [compound 10479] | 7.9 µM | 38.1 µM | –
19 | CC1Sc2nnc(-c3cc(-c4ccccc4)n[nH]3)n2N=C1c1ccccc1 (stereo not shown) [compound 10260] | 4.8 µM | 42.7 µM | –
20 | Clc1ccc(C2=Nn3c(nnc3-c3[nH]nc4c3CCC4)SC2)cc1 [UPCDC87346005] | – | – | IC50 (Cal33 cells; [5]): 0.77 µM
21 | CCN(CC)c1ccc(C2=Nn3c(nnc3-c3[nH]nc4c3CCC4)SC2C)cc1 (stereo not shown) [compound 10521] | 6.6 µM | 1 µM | –
22 | COCCC1Sc2nnc(-c3cc(-c4ccc(F)cc4)n[nH]3)n2N=C1c1ccc(OC)cc1 (stereo not shown) [compound 10374] | 8.5 µM | 14.4 µM | –

Row | Structure (SMILES) | IC50 (STAT3; [1]) | IC50 (Cal33 cells; [2]) | further results
23 | COC(=O)CC1Sc2nnc(-c3cc(-c4ccccc4)n[nH]3)n2N=C1c1ccccc1 (stereo not shown) [compound 10423] | 17.9 µM | 37.9 µM | –
24 | CCN(CC)c1ccc(C2=Nn3c(nnc3-c3cc(-c4ccccc4)nn3C)SC2C)cc1 (stereo not shown) [compound 10559] | 5.7 µM | 27.5 µM | –
25 | COc1ccc(C2=Nn3c(nnc3-c3cc(-c4ccccc4)nn3C)SC2C)cc1 (stereo not shown) [compound 10540] | 4.7 µM | 1.3 µM | –
26 | COc1ccc(C2=Nn3c(nnc3-c3cc(-c4ccc(F)cc4)n[nH]3)SC2C)cc1 (racemic) [compound 10204] | 4.2 µM | 33 µM | –
27 | CC1Sc2nnc(-c3nn(C)c4c3CCC4)n2N=C1c1ccc(Cl)c(Cl)c1 (stereo not shown) [compound 10469] | 7.8 µM | 3.1 µM | –
28 | COc1ccc(C2=Nn3c(nnc3-c3[nH]nc4c3CN(Cc3ccccc3)C4)SC2C)cc1 (stereo not shown) [compound 10512] | 27 µM | 4.6 µM | –
29 | COc1ccc(C2=Nn3c(nnc3-c3cc(-c4ccccc4)n(C)n3)SC2C)cc1 (stereo not shown) [compound 10542] | 6.5 µM | 15.1 µM | –
30 | CCOC(=O)CC1Sc2nnc(-c3cc(-c4ccccc4)n[nH]3)n2N=C1c1ccc(OC)cc1 (stereo not shown) [compound 10448] | 15.5 µM | 13.6 µM | –
31 | COc1ccc(C2=Nn3c(nnc3-c3nn(C(C)=O)c4c3CCC4)SC2C)cc1 (stereo not shown) [compound 10421] | 37.1 µM | 0.26 µM | –
32 | COc1ccc(C2=Nn3c(nnc3-c3nn(Cc4ccccc4)c4c3CCC4)SC2C)cc1 (stereo not shown) [compound 10439] | 7.6 µM | 1.7 µM | –
33 | O=C(CC1Sc2nnc(-c3cc(-c4ccc(Cl)cc4)n[nH]3)n2N=C1c1ccccc1)N1CCCC1 (stereo not shown) [compound 10411] | 11.1 µM | 21.6 µM | –
34 | COc1cccc(C2=Nn3c(nnc3-c3cc(-c4cccc(Cl)c4)n[nH]3)SC2C)c1 (stereo not shown) [compound 10536] | 9.1 µM | 9.3 µM | –
35 | COc1ccc(C2=Nn3c(nnc3-c3[nH]nc4c3CCC4)SC2CCN)cc1 (stereo not shown) [compound 10383] | 31.2 µM | 2.5 µM | –
36 | COc1ccc(C2=Nn3c(nnc3-c3cc(-c4ccccc4)n[nH]3)SC2CC(C)C)cc1 (stereo not shown) [compound 10307] | – | 11.5 µM | –
37 | Cc1ccc(C2=Nn3c(nnc3-c3cc(-c4ccccc4)n[nH]3)SC2C)cc1 (stereo not shown) [compound 10473] | 14.1 µM | 12 µM | –
38 | COc1ccc(C2=Nn3c(nnc3-c3cc(-c4ccccc4)n[nH]3)SC2CCN)cc1 (stereo not shown) [Cmpd 30] | – | – | GI50 (Cal33 cells): 2500 nM
39 | COc1ccc(C2=Nn3c(nnc3-c3cc(-c4ccccc4)n[nH]3)SC2Cc2ccccc2)cc1 (stereo not shown) [compound 10321] | 5.8 µM | – | –
40 | CC1Sc2nnc(-c3cc(-c4ccccc4)n[nH]3)n2N=C1c1ccc(F)c(F)c1 (stereo not shown) [compound 10532] | 8.6 µM | 14.2 µM | –
41 | COc1cccc(C2=Nn3c(nnc3-c3[nH]nc4c3CCC4)SC2C)c1 (stereo not shown) [compound 10471] | 40.1 µM | 3.9 µM | –
42 | COCCC1Sc2nnc(-c3cc(-c4ccc(Cl)cc4)n[nH]3)n2N=C1c1ccc(OC)cc1 (stereo not shown) [compound 10373] | 33.2 µM | 4.8 µM | –
43 | COc1ccc(C2=Nn3c(nnc3-c3[nH]nc4c3CCC4)SC2CCO)cc1 (stereo not shown) [compound 10403] | 49.2 µM | 0.93 µM | –
44 | COc1ccc(C2=Nn3c(nnc3-c3cc(-c4ccccc4)n[nH]3)SC2C(C)C)cc1 (stereo not shown) [compound 10319] | 21.6 µM | 20 µM | –

Row | Structure (SMILES) | IC50 (STAT3; [1]) | IC50 (Cal33 cells; [2]) | further results
45 | COc1ccc(C2=Nn3c(nnc3-c3[nH]nc4c3CSC4)SC2C)cc1 (stereo not shown) [compound 10435] | 33.9 µM | 0.63 µM | –
46 | c1ccc(C2=Nn3c(nnc3-c3[nH]nc4c3CCC4)SC2c2ccccc2)cc1 (racemic) [compound 10298] | 26.5 µM | 1.1 µM | –
47 | c1ccc2c(C3=Nn4c(nnc4-c4[nH]nc5c4CCC5)SC3)c[nH]c2c1 [UPCDC10115] | – | – | IC50 (STAT3; [4]): 38 µM; IC50 (Cal33 cells; [5]): 0.21 µM
48 | COc1ccc(C2=Nn3c(nnc3-c3nn(CC(=O)OC(C)(C)C)c4c3CCC4)SC2C)cc1 (stereo not shown) [compound 10438] | 34.1 µM | 49.6 µM | –
49 | COc1ccc(C2=Nn3c(nnc3-c3cc(-c4ccc(Cl)cc4)n[nH]3)SC2C)cc1 (stereo not shown) [Cmpd 24] | – | – | GI50 (Cal33 cells): 2200 ± 300 nM
50 | CC1Sc2nnc(-c3cc(-c4ccccc4)n[nH]3)n2N=C1c1ccc(N2CCOCC2)cc1 (stereo not shown) [compound 10522] | 39.3 µM | 9.6 µM | –
51 | Clc1ccc(C2=Nn3c(nnc3-c3cc(-c4ccccc4)n[nH]3)SC2Cc2ccccc2)cc1Cl (stereo not shown) [compound 10309] | 22.6 µM | – | –
52 | CC(C)C1Sc2nnc(-c3cc(-c4ccccc4)n(C)n3)n2N=C1c1ccccc1 (stereo not shown) [compound 10562] | 12.2 µM | 50 µM | –
53 | CC1Sc2nnc(-c3[nH]nc4c3CCC4)n2N=C1c1ccc(F)cc1 (racemic) [compound 10282] | 27.7 µM | 31.3 µM | –
54 | COc1ccc(C2=Nn3c(nnc3-c3[nH]nc4c3CCC4)SC2C(C)C)cc1 (stereo not shown) [UPCDC10318] | – | – | IC50 (Cal33 cells; [5]): 0.4 µM; IC50 (Cal33 cells; [6]): 0.4 µM
55 | COc1ccc(C2=Nn3c(nnc3-c3[nH]nc4c3CCC4)SC2CC(C)C)cc1 (stereo not shown) [UPCDC10305] | 5.1 µM | – | IC50 (STAT3; [3]): < 10 µM; IC50 (STAT3; [4]): 5.14 µM; IC50 (Cal33 cells; [5]): 0.47 µM; IC50 (Cal33 cells; [6]): 0.47 µM
56 | COc1ccc(C2=Nn3c(nnc3-c3cc(-c4ccccc4)n(C)n3)SC2C(C)C)cc1 (stereo not shown) [compound 10554] | 8.3 µM | 19.1 µM | –
57 | COc1ccc(C2=Nn3c(nnc3-c3[nH]nc4c3CCC4)SC2)cc1 | – | – | IC50 (Cal33 cells; [5]): 0.15 µM
58 | COc1ccc(C2=Nn3c(nnc3-c3cc(-c4ccccc4)n[nH]3)SC2CCN)cc1 (stereo not shown) [compound 10371] | – | 24.1 µM | –
59 | COc1ccc(C2=Nn3c(nnc3-c3nn(C(=O)OC(C)(C)C)c4c3CCC4)SC2C)cc1 (stereo not shown) [compound 10422] | 34.7 µM | 0.38 µM | –
60 | CC1Sc2nnc(-c3cc(-c4ccc(Cl)cc4)n[nH]3)n2N=C1c1ccccc1 (racemic) [compound 10174] | 5.7 µM | 35.5 µM | –
61 | COc1ccc(C2=Nn3c(-c4cc(-c5ccccc5)n[nH]4)nnc3[S+]([O-])C2C)cc1 (stereo not shown) [compound 10534] | 26.2 µM | – | IC50 (Cal33 cells; [6]): 50 µM
62 | CC1(C)Sc2nnc(-c3cc(-c4ccc(Cl)cc4)n[nH]3)n2N=C1c1ccccc1 [compound 10268] | 38.2 µM | 50 µM | –
63 | COCCC1Sc2nnc(-c3cc(-c4ccccc4)n[nH]3)n2N=C1c1ccc(OC)cc1 (stereo not shown) [Cmpd 31] | – | – | GI50 (Cal33 cells): 40 nM
64 | COc1ccc(C2=Nn3c(nnc3-c3cc(-c4ccccc4)nn3C(C)=O)SC2C)cc1 (stereo not shown) [compound 10480] | 6.3 µM | 30.4 µM | –
